Source: patent US8426408B2, “Pyrimidine inhibitors of kinases” (AbbVie Inc., priority 2009, dated 2013)

Key:
KDR [1] = target: T1, KDR (Homo sapiens, UniProt P35968); test: KDR cellular assay (KDR receptor phosphorylation ELISA); assay type: cell-based; parameters: expressed in transfected cells; host or cells: 3T3 (embryonic mouse) cells; settings: KDR transfected 3T3 (embryonic mouse) cells, VEGF stimulated; read-out: IC50 inhibition of KDR phosphorylation
Procedure, shortened: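 KDR-transfected mouse 3T3 cells treated 20 min at 37° C with half-log compound dilutions, then stimulated 10 min with VEGF (100 ng/ml solution). Lysates captured on anti-KDR plates; phosphorylation by biotin antibody/streptavidin-HRP ELISA at 450 nm. IC50 by non-linear regression.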
Target sequence in this assay (P35968 20-1356): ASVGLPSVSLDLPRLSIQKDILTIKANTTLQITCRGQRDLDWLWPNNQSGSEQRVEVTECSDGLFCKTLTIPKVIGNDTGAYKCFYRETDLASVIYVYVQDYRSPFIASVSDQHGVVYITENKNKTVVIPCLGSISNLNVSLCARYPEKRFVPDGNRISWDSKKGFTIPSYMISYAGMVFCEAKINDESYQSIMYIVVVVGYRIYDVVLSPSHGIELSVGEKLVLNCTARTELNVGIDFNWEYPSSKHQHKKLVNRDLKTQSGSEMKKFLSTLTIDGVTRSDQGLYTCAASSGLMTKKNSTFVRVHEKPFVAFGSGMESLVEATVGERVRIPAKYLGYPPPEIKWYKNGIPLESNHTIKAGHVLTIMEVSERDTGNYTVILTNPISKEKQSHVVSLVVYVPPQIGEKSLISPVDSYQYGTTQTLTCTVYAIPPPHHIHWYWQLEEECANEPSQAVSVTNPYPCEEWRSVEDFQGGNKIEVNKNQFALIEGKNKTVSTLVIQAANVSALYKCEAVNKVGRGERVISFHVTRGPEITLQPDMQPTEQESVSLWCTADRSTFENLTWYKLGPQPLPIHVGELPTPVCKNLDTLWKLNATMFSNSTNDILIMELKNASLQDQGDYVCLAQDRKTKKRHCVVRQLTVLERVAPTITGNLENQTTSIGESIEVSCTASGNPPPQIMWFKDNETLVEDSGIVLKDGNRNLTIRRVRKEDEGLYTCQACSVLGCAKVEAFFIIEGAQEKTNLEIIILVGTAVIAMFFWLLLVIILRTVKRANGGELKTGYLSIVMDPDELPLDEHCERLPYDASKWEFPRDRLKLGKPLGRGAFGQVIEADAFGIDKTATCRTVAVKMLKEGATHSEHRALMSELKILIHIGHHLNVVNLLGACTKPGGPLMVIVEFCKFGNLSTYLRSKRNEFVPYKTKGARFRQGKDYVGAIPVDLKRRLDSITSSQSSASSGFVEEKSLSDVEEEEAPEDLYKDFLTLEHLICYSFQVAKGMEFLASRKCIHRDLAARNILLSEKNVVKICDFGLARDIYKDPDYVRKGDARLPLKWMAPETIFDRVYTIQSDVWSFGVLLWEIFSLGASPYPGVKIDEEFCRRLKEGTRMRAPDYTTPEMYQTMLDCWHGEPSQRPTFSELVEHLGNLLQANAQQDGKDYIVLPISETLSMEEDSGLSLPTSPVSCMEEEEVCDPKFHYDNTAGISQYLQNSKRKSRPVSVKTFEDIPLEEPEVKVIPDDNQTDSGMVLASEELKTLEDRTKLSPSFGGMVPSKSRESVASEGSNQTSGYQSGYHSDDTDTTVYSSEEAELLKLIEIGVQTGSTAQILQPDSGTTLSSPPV

Aurora B = target: T2, Aurora B (Homo sapiens, UniProt Q96GD4); test: Aurora B enzyme inhibition (time-resolved fluorescence, histone H3 peptide); assay type: biochemical; settings: 1 mM ATP
T2 construct: Active Aurora B enzyme (recombinant residues 1-344)
Procedure, shortened: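 Recombinant Aurora B (residues 1-344) with GST-INCENP phosphorylated biotinylated histone H3 (1-21) peptide at 1 mM ATP in HEPES pH 7.4 with MgCl2, orthovanadate and Triton X-100 for 1 h. After EDTA stop, the phosphopeptide was detected by TR-FRET (Eu-cryptate anti-phospho-H3 / SA-APC, 665/615 nm ratio). IC50 from an exponential fit.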

KDR [2] = target: T1, KDR; test: KDR HTRF in vitro kinase assay; assay type: biochemical; parameters: purified enzyme (His6-KDR 789-1354, MW 63 kD); His6 (N); settings: 1 mM ATP; read-out: KDR enzyme inhibition data (Ki)
Procedure, shortened: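 His6-KDR 789-1354 (7 ng/well) with 0.5 μM biotinylated peptide substrate and 1 mM ATP in HEPES pH 7.1, MgCl2/MnCl2, 60 min at room temperature. EDTA-quenched, detected by streptavidin-XL-665 plus Eu-kryptate anti-phosphotyrosine HTRF after 3 h; IC50 from 620/665 nm ratio.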
Target sequence in this assay (P35968 789-1354): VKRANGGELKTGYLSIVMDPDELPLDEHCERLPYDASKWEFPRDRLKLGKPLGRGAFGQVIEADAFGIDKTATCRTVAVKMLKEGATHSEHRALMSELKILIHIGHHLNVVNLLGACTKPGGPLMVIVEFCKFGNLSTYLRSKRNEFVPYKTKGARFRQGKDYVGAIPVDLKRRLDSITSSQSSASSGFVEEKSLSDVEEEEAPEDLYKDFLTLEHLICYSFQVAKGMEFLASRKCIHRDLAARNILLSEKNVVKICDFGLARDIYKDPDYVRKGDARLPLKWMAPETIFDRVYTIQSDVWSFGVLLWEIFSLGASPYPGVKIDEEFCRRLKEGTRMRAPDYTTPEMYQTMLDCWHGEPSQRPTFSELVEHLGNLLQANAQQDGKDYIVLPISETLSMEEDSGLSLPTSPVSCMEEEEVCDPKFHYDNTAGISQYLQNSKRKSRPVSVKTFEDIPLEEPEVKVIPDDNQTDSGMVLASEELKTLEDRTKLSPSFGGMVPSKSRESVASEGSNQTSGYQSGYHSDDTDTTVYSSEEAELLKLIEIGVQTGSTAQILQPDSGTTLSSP

T2 sequence (Q96GD4 whole entry, the tested form may be a part): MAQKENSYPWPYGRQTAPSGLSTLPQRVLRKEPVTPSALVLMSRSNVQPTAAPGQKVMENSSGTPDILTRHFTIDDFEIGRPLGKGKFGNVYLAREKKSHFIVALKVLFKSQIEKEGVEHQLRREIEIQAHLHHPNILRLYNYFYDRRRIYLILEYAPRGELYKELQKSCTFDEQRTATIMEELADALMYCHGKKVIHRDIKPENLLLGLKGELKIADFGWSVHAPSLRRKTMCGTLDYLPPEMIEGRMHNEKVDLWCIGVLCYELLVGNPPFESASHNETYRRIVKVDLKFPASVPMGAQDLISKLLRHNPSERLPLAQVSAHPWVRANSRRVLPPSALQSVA
T2 sequence (Q9NQS7 826-918 partner limits assumed): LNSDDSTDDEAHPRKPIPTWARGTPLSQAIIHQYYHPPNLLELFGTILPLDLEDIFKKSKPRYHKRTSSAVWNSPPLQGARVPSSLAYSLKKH

In the case of `NC(=O)[C@@H]1CCC[C@@H]1Nc1nc(Nc2cnn(C3CCNCC3)c2)ncc1Cl.NC(=O)[C@H]1CCC[C@H]1Nc1nc(Nc2cnn(C3CCNCC3)c2)ncc1Cl` (mixture of isomers) [Example 136, (1S,2R)-2-[(5-chloro-2-{[1-(piperidin-4-yl)-1H-pyrazol-4-yl]amino}pyrimidin-4-yl)amino]cyclopentanecarboxamide and (1R,2S)-2-[(5-chloro-2-{[1-(piperidin-4-yl)-1H-pyrazol-4-yl]amino}pyrimidin-4-yl)amino]cyclopentanecarboxamide], the IC50 (KDR [1]) is reported as 100 to 1000 nM, the Ki (Aurora B) is reported as < 100 nM and the Ki (KDR [2]) is reported as 100 to 1000 nM.
With `CCn1cc(Nc2ncc(C(F)(F)F)c(N[C@H]3[C@@H](C(N)=O)C[C@H]4C[C@@H]3C4(C)C)n2)cn1` [Example 168, (1R,2R,3S,5R)-2-({2-[(1-ethyl-1H-pyrazol-4-yl)amino]-5-(trifluoromethyl)pyrimidin-4-yl}amino)-6,6-dimethylbicyclo[3.1.1]heptane-3-carboxamide] the IC50 (KDR [1]) was 100 to 1000 nM, the Ki (Aurora B) was < 100 nM and the Ki (KDR [2]) was < 100 nM.
With `CC(=O)N1CCC(n2cc(Nc3ncc(Cl)c(N[C@H]4[C@@H](C(N)=O)[C@@H]5C=C[C@H]4C5)n3)cn2)CC1` [Example 92, (1S,2S,3R,4R)-3-[(2-{[1-(1-acetylpiperidin-4-yl)-1H-pyrazol-4-yl]amino}-5-chloropyrimidin-4-yl)amino]bicyclo[2.2.1]hept-5-ene-2-carboxamide] the IC50 (KDR [1]) was 100 to 1000 nM, the Ki (Aurora B) was < 100 nM and the Ki (KDR [2]) was < 100 nM.
`NC(=O)[C@@H]1[C@H](Nc2nc(Nc3cnn(CCc4ccccc4)c3)ncc2Br)[C@H]2C=C[C@@H]1C2` [Example 148, (1S,2S,3R,4R)-3-[(5-bromo-2-{[1-(2-phenylethyl)-1H-pyrazol-4-yl]amino}pyrimidin-4-yl)amino]bicyclo[2.2.1]hept-5-ene-2-carboxamide] was tested, and the IC50 (KDR [1]) was < 100 nM, the Ki (Aurora B) was < 100 nM and the Ki (KDR [2]) was < 100 nM.
For `NC(=O)[C@@H]1[C@H](Nc2nc(Nc3cnn(Cc4ccccc4Cl)c3)ncc2Cl)[C@H]2C=C[C@@H]1C2` [Example 161, (1S,2S,3R,4R)-3-[(5-chloro-2-{[1-(2-chlorobenzyl)-1H-pyrazol-4-yl]amino}pyrimidin-4-yl)amino]bicyclo[2.2.1]hept-5-ene-2-carboxamide], the IC50 (KDR [1]) was < 100 nM, the Ki (Aurora B) was < 100 nM and the Ki (KDR [2]) was < 100 nM.
For `NC(=O)[C@@H]1[C@H](Nc2nc(Nc3cnn(Cc4cccc(Cl)c4)c3)ncc2Cl)[C@H]2C=C[C@@H]1C2` [Example 157, (1S,2S,3R,4R)-3-[(5-chloro-2-{[1-(3-chlorobenzyl)-1H-pyrazol-4-yl]amino}pyrimidin-4-yl)amino]bicyclo[2.2.1]hept-5-ene-2-carboxamide], the IC50 (KDR [1]) was < 100 nM, the Ki (Aurora B) was < 100 nM and the Ki (KDR [2]) was < 100 nM.
